Measurements as given in ChEMBL document CHEMBL6074704, “The Antiepileptic Drug Levetiracetam Inhibits Carbonic Anhydrase: In Vitro and In Silico Studies on Catalytically Active Human Isoforms” (ACS Med Chem Lett, 2024).

What was measured:
Carbonic anhydrase 12 = Carbonic anhydrase 12 (Homo sapiens, UniProt O43570)
Description: Inhibition of human CA12 preincubated for 15 mins by phenol red staining based stopped flow CO2 hydrase assay

Carbonic anhydrase 7 = Carbonic anhydrase 7 (Homo sapiens, UniProt P43166)
Description: Inhibition of human CA7 preincubated for 15 mins by phenol red staining based stopped flow CO2 hydrase assay

Carbonic anhydrase 2 = Carbonic anhydrase 2 (Homo sapiens, UniProt P00918); assay: Inhibition of human CA2 preincubated for 15 mins by phenol red staining based stopped flow CO2 hydrase assay
Carbonic anhydrase 9 = Carbonic anhydrase 9 (Homo sapiens, UniProt Q16790)
[1] = target: Carbonic anhydrase 5B, mitochondrial (Homo sapiens, UniProt Q9Y2D0); assay: Inhibition of human CA VB preincubated for 15 mins by phenol red staining based stopped flow CO2 hydrase assay
Chain of Carbonic anhydrase 5B, mitochondrial (Q9Y2D0 whole entry): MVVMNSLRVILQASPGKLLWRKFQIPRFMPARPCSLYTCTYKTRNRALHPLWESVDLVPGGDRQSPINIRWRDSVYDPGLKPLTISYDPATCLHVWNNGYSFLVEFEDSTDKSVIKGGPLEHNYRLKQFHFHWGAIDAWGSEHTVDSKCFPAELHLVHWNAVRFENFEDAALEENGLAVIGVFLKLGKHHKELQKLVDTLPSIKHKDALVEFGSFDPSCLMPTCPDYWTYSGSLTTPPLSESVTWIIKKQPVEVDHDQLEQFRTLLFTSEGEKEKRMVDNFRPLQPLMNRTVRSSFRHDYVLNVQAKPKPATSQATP

Carbonic anhydrase 14 = Carbonic anhydrase 14 (Homo sapiens, UniProt Q9ULX7); assay: Inhibition of human CA14 preincubated for 15 mins by phenol red staining based stopped flow CO2 hydrase assay
Chain of Carbonic anhydrase 14 (Q9ULX7 whole entry): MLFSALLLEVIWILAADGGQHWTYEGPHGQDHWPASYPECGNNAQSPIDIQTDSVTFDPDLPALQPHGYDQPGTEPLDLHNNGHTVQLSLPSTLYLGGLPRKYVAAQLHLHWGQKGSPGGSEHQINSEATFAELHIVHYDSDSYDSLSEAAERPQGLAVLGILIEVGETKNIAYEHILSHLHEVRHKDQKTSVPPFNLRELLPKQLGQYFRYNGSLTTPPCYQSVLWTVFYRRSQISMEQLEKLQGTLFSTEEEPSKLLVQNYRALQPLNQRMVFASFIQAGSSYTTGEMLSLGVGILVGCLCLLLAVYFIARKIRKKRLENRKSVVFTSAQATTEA

Carbonic anhydrase 3 = Carbonic anhydrase 3 (Homo sapiens, UniProt P07451)
Chain of Carbonic anhydrase 3 (P07451 whole entry): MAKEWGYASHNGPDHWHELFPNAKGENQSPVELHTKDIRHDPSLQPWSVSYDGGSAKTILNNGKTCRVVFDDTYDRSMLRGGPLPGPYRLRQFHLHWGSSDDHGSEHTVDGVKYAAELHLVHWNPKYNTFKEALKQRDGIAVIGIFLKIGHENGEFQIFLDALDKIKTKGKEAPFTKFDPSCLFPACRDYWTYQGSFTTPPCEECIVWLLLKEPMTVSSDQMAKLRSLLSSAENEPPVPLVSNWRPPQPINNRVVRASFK
Description: Inhibition of human CA3 preincubated for 15 mins by phenol red staining based stopped flow CO2 hydrase assay

Carbonic anhydrase 4 = Carbonic anhydrase 4 (Homo sapiens, UniProt P22748); assay: Inhibition of human CA4 preincubated for 15 mins by phenol red staining based stopped flow CO2 hydrase assay
Chain of Carbonic anhydrase 4 (P22748 whole entry): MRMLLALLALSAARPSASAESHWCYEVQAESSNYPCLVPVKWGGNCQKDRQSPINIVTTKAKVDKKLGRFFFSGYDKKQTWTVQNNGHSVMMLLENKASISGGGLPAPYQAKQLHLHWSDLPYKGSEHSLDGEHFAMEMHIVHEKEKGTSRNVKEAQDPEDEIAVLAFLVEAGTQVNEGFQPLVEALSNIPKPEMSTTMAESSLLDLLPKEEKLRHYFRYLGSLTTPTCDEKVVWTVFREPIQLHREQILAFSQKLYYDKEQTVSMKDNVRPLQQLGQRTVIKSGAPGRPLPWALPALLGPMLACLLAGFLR

Carbonic anhydrase 1 = Carbonic anhydrase 1 (Homo sapiens, UniProt P00915); assay: Inhibition of human CA1 preincubated for 15 mins by phenol red staining based stopped flow CO2 hydrase assay
Chain of Carbonic anhydrase 1 (P00915 whole entry): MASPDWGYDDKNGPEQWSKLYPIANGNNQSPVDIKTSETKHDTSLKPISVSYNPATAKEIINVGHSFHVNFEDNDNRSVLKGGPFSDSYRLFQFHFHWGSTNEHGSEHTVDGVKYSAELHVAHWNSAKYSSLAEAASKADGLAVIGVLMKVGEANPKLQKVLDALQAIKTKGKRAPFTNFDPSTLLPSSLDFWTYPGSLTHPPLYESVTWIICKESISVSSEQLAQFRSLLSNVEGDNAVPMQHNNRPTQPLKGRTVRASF

Carbonic anhydrase 6 = Carbonic anhydrase 6 (Homo sapiens, UniProt P23280); assay: Inhibition of human CA6 preincubated for 15 mins by phenol red staining based stopped flow CO2 hydrase assay
Chain of Carbonic anhydrase 6 (P23280 whole entry): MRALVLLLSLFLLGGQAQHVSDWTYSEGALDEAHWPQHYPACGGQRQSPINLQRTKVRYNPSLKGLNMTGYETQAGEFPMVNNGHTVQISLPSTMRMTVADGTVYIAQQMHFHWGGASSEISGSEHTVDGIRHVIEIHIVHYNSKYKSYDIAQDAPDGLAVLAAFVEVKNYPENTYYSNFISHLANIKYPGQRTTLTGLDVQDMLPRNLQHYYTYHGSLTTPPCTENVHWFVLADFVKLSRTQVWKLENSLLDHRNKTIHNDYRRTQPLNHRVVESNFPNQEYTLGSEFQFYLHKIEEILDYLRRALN

[2] = target: Carbonic anhydrase 5A, mitochondrial (Homo sapiens, UniProt P35218); assay: Inhibition of human CA VA preincubated for 15 mins by phenol red staining based stopped flow CO2 hydrase assay
Chain of Carbonic anhydrase 5A, mitochondrial (P35218 whole entry): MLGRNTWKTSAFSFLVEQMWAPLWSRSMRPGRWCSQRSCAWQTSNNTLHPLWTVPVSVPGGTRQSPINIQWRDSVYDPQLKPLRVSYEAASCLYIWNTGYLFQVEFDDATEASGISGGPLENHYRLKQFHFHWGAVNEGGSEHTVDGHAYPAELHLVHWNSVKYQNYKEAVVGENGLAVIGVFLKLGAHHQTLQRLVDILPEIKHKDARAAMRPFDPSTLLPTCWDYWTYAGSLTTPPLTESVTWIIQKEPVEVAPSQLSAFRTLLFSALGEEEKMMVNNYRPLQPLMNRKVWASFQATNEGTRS

Carbonic anhydrase 13 = Carbonic anhydrase 13 (Homo sapiens, UniProt Q8N1Q1); assay: Inhibition of human CA13 preincubated for 15 mins by phenol red staining based stopped flow CO2 hydrase assay
Chain of Carbonic anhydrase 13 (Q8N1Q1 whole entry): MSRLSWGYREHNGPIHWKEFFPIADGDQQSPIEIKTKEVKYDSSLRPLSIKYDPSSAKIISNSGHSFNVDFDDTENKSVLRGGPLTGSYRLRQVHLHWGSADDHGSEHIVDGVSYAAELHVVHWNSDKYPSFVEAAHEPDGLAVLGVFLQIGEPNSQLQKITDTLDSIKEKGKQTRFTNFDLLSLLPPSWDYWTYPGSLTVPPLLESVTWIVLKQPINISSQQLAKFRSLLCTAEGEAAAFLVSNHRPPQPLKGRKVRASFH

Chain of Carbonic anhydrase 7 (P43166 whole entry): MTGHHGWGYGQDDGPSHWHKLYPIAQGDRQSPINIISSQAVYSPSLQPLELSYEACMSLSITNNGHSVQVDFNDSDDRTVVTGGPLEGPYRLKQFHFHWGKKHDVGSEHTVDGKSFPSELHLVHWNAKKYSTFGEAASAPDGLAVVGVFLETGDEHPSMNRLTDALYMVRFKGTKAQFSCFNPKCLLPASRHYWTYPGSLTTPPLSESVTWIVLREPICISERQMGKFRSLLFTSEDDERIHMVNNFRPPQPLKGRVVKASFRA
Chain of Carbonic anhydrase 12 (O43570 whole entry): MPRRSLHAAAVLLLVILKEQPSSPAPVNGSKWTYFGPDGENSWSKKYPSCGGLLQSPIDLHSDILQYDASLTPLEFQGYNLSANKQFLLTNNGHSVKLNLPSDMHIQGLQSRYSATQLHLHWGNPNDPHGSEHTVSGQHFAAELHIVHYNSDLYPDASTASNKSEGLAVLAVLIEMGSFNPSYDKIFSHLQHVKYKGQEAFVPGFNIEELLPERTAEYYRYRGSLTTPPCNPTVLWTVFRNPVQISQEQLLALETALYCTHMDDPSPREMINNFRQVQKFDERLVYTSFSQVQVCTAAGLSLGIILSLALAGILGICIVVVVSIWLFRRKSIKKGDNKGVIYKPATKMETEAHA

For `CC[C@@H](C(N)=O)N1CCCC1=O`, the Ki (Carbonic anhydrase 12) was 0.054 µM, the Ki (Carbonic anhydrase 7) was 7.55 µM and the Ki (Carbonic anhydrase 2) was 3.92 µM. For the same molecule, the Ki (Carbonic anhydrase 9) was 0.089 µM, the Ki [1] was 3.86 µM and the Ki (Carbonic anhydrase 14) was 2.27 µM. It also gave a Ki (Carbonic anhydrase 3) of 2.44 µM, a Ki (Carbonic anhydrase 4) of 5.3 µM and a Ki (Carbonic anhydrase 1) of 7.95 µM. It also gave a Ki (Carbonic anhydrase 6) of 8.4 µM, a Ki [2] of 9.2 µM and a Ki (Carbonic anhydrase 13) of 4.17 µM.
